Tests used:
[1] = tested on: orthotopic 4T1.2 tumors; assay: MACTIDE-V monotherapy in orthotopic 4T1.2; type: in vivo, Balb/c mice
Method: We evaluated the effect of MACTIDE‐V on tumor progression and metastasis in the highly metastatic orthotopic 4T1.2 model.^[ [33] ^] When tumors reached 55 mm^3 we began the treatment with MACTIDE‐V or CtrlPep‐V every other day until day 23, using the same dose used in section 5. […] No body weight loss was detected in any of the groups (Figure S7, Supporting Information).
Figure 7 MACTIDE‐V slows tumor growth and suppresses lung metastasis in orthotopic 4T1.2. 4T1.2 bearing mice were treated with 9 doses of CtrlPep‐V, MACTIDE‐V (1 mg Kg^−1 in Verteporfin per dose), or PBS i.p. every other day, while monitoring the primary tumor volume (A). Mice were sacrificed on day 25, tumor weights were measured (B) and pulmonary metastasis areas were quantified from H&E sections (C). D–G) Tumor cell suspensions were analyzed by flow cytometry (n = 4 per group). H) Representative mIHC images of PBS, CtrlPep‐V, and MACTIDE‐V treated tumors, scale bar = 100 µm. I) CD8^+ T cells, CD4^+ T cells, and Treg density obtained from mIHC images (n = 6 mice/group), with every dot representing the mean cell density of each tumor obtained from 20 images. Median ± interquartile range. One‐way ANOVA with multiple comparisons, ^* p ≤ 0.05, ^** p ≤ 0.01.
5×10^5 4T1.2 cells in 50 µL of PBS was injected subcutaneously to 4th mammary fat pad. On day 7, mice were sorted into groups based on tumor volume, ≈55—60 mm^3 calculated based on the formula shown above. Mice were treated every other day with 500 µL of MACTIDE‐V, CtrlPep‐V (30 nmol), and PBS, 9 injections in total, n = 10 mice/group. The cumulative Verteporfin dose was 9 mg kg^−1. The last injection was on day 23. Four mice from each group were sacrificed on day 25 through anesthetic overdose and their tumors were analyzed by flow cytometry (FC) and mIHC. The rest of the mice were left to continue in the study with the initial intention of performing a survival study, however, all of these mice were sacrificed within 5 days based on their tumor size (above 1500 mm^3) or cachexia.
For FC, mice were not perfused, the tumors were cut into small pieces, digested using 10 mL of collagenase IV (200 U mL^−1, Gibco, catalog no.17104019), dispase (0.6 U mL^−1, Gibco, catalog no. 17105‐041) and DNase I (15 U mL^−1, AppliChem, catalog no. A3778) mixture on a rotating platform for up to 60 min at 37 °C, pipetting every 10 min. Red blood cells were lysed using 3 mL of ammonium‐chloride‐potassium lysis buffer. After that, cells were centrifuged (350×g, 7 min, +4 °C), filtered (100 µm cell strainer, Falcon, catalog no. 352360), and counted using the bright‐field mode of LUNA Automated Cell counter (Logos Biosystems). Cells were seeded at a concentration of 5×10^6 cells/100 µL of running buffer (RB) (1L of RB: 4 mL 0.5M EDTA + 100 mL FBS + the rest PBS) on the 96‐well conical bottom plate and incubated for 15 min in dark at RT in 50 µL of Zombie NIR Fixable Viability Kit (BioLegend). After that, 30 µL of blocking antibody (TruStain FcX, Biolegend) was added and incubated for 10 min in the dark at +4 °C. Then, to stain macrophages, 20 µL of antibody mixture was added, and incubated for 25 min in the dark at +4 °C after which 50 µL of RB was added, centrifuged, washed two times with 150 µL of RB, and taken up in 150 µL of RB. For intracellular staining, cells were fixed and permeabilized using the eBioscience Foxp3/Transcription Factor Staining Buffer Set (Thermofisher). Cells were then stained with 100 µL of antibody mixture and incubated for 40 min in the dark at RT. Cells were centrifuged, washed twice with 150 µL of RB, and resuspended in 150 µL of RB. Samples were analyzed using the SONY ID7000 spectral flow cytometer and the accompanying software (Table 4 ).
To determine the pulmonary metastatic area, lungs from MACTIDE‐V monotherapy were stained for hematoxylin and eosin according to the following protocol. […]

[2] = Hepatic and renal toxicity serum levels in healthy mice; type: in vivo; settings: 48 h after one i.p. dose of 3 mg/Kg, healthy Balb/c mice, n = 4
Method: To investigate potential off‐target risk in vivo caused by MACTIDE‐V we analyzed the serum levels of the hepatic enzyme alanine aminotransferase (ALAT) following a 3 mg Kg^−1 dose of MACTIDE‐V in healthy mice. If MACTIDE‐V causes off‐target inflammation, it would likely occur in the liver (the organ that expresses the MACTIDE receptor) and would reflect on ALAT levels (liver inflammation produces a > 2‐fold increase in ALAT^[ [35] ^]).
Table S1. Hepatic and renal toxicity analysed following one dose of MACTIDE-V. Hepatic and renal toxicology serum levels of Crea and ALAT 48 h after i.p.-administration of MACTIDE-V (3 mg/kg) in healthy Balb/c mice (n=4). Normal ranges were obtained from Mouse Phenome Database by The Jackson Laboratory.

[3] = tumor flow cytometry, n = 4 per group

Substance: Vert‐Ahx‐G(CTKSIPPIC)SPGAK‐OH (disulfide) [MACTIDE‐V]
- primary tumor volume ([1]; 9 doses i.p. every other day, 30 nmol (1 mg Kg^−1 in Verteporfin per dose), 4 weeks after tumor induction, versus CtrlPep‐V and PBS): significantly smaller tumor volumes
- pulmonary metastasis ([1]; 9 doses i.p. every other day, 1 mg Kg^−1 in Verteporfin per dose, area from H&E sections): fewer pulmonary metastasis
- endpoint tumor weights ([1]; 9 doses i.p. every other day, 1 mg Kg^−1 in Verteporfin per dose, sacrifice day 25): smaller endpoint tumor weights
- CD4^+ T cell density (mIHC) ([1]; compared to CtrlPep‐V and PBS, n = 6 mice/group): significant increase in CD4^+ T cell density
- Treg density (mIHC) ([1]; n = 6 mice/group): no differences in Treg density
- MHC II^−CD206^+ subset of TAM/monocytes [1, 3]: decreased
- PD‐1 expression in CD8^+ and CD4^+ T cells [1, 3]: decrease in PD‐1 expression
- percentage of MHCII^+CD206^+ TAM/monocytes [1, 3]: increased
- tumor‐infiltrating B cells [1, 3]: no change
- proportion of tumor‐infiltrating T cells and NK cells ([1]; tumor flow cytometry, with respect to CtrlPep‐V and PBS, n = 4 per group): rise in the proportion
- Creatinine, serum ([2]; normal range 10-36): 11.8 ± 1 µM
- Alanine aminotransferase, serum ([2]; normal range 50-90): 52 ± 10.5 U/I

Source: PMC11904948, “Peptide‐Drug Conjugate for Therapeutic Reprogramming of Tumor‐Associated Macrophages in Breast Cancer” (Advanced Science, 2025)
